These results are taken from patent publication US5686486A, “4-hydroxy-benzopyran-2-ones and 4-hydroxy-cycloalkyl[b]pyran-2-ones useful to treat retroviral infections” (priority 1995, dated 1997).

In test [1] the target is T1, HIV-1 protease (Human immunodeficiency virus type 1 group M subtype B, UniProt P04585). Kind of test: biochemical. Conditions: for inhibition at 0.123 µM: read-out: HIV-1 Protease % Inhib, dose 0.123 uM; for inhibition at 0.37 µM: read-out: HIV-1 Protease % Inhib, dose 0.370 uM; for inhibition at 1.1 µM: read-out: HIV-1 Protease % Inhib, dose 1.100 uM; for inhibition at 3.3 µM: read-out: HIV-1 Protease % Inhib, dose 3.300 uM; for inhibition at 10 µM: read-out: HIV-1 Protease % Inhib, dose 10.000 uM; for inhibition at 30 µM: read-out: HIV-1 Protease % Inhib, dose 30.000 uM. A digest of the protocol:
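Biotinylated, FITC-labeled peptide substrate (20 μl of 0.2 μM) incubated with HIV-1 protease (10 μl of 0.1 μM) and compound in 0.1 M sodium acetate pH 5.5, 1.0 M NaCl, 0.05% NP-40, 1 h, room temperature, dark. Streptavidin beads then capture uncleaved substrate; filtered labeled product read by fluorescence, giving percent inhibition.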

The target of test [2] is T1, HIV-1 protease. Kind of test: biochemical. As to conditions: read-out: HIV-1 FITC KI. In outline: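 Ki from two-fold serial inhibitor dilutions (24–48 concentrations) with 40 nM HIV-1 protease stock and 200 μM substrate stock, 90 min at room temperature; stopped with avidin beads. Reference inhibitor run in parallel; Ki by nonlinear least-squares fit.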

As for `O=c1oc2c(c(O)c1C(c1cccc(NS(=O)(=O)CCc3ccccc3)c1)C1CC1)CCCCCC2` (stereo not shown) [Example 346, N-[3-[Cyclopropyl(5,6,7,8,9,10-hexahydro-4-hydroxy-2-oxo-2H-cycloocta[b]pyran-3-yl)methyl]phenyl]-benzeneethanesulfonamide], in test [1], the inhibition at 0.123 µM worked out at 75.1%, the inhibition at 0.37 µM was found to be 92.5%, the inhibition at 1.1 µM is 97.3% and the inhibition at 3.3 µM was found to be 102%. Further, in test [1], the inhibition at 10 µM is 103% and the inhibition at 30 µM turned out to be 97%. The inhibition constant (Ki) in test [2] stood at 3.85 nM.

`O=c1oc2c(c(O)c1C(c1cccc(NS(=O)(=O)c3ccc(-c4ccon4)s3)c1)C1CC1)CCCCCC2` (stereo not shown) [Example 347, N-[3-[Cyclopropyl(5,6,7,8,9,10-hexahyro-4-hydroxy-2-oxo-2H-cycloocta[b]pyran-3-yl)methyl]phenyl]-5-(3-isoxazolyl)-2-thiophenesulfonamide]: in test [1], the inhibition at 0.123 µM was 79.8%, the inhibition at 0.37 µM amounted to 92.2%, the inhibition at 1.1 µM came to 103% and the inhibition at 3.3 µM was found to be 100%. Moreover, in test [1], the inhibition at 10 µM amounted to 102% and the inhibition at 30 µM was 103%. For the same compound, in test [2], the inhibition constant Ki was determined as 2.5 nM.

As to `O=c1oc2c(c(O)c1C(c1cccc(NS(=O)(=O)c3ccc(NO)cc3)c1)C1CC1)CCCCCC2` (stereo not shown) [Example 348 (Second Title Compound), N-[3-[cyclopropyl(5,6,7,8,9,10-hexahydro-4-hydroxy-2-oxo-2H-cycloocta[b]pyran-3-yl)methyl]phenyl]4-(hydroxyamino)-benzenesulfonamide], in test [1], the inhibition at 0.123 µM came to 38.6%, the inhibition at 0.37 µM stood at 81%, the inhibition at 1.1 µM was determined as 102% and the inhibition at 3.3 µM amounted to 109%. In addition, in test [1], the inhibition at 10 µM turned out to be 113% and the inhibition at 30 µM amounted to 98.7%. Also, the Ki in test [2] amounted to 1.7 nM.

Take `O=c1oc2c(c(O)c1C(c1cccc(NS(=O)(=O)c3ccc(NS(=O)(=O)c4ccccc4)cc3)c1)C1CC1)CCCCCC2` (stereo not shown) [Example 349, N-[3-[Cyclopropyl(5,6,7,8,9,10-hexahydro-4-hydroxy-2-oxo-2H-cycloocta[b]pyran-3-yl)methyl]phenyl]4-[(phenylsulfonyl)amino]-benzenesulfonamide]: in test [1], the inhibition at 0.37 µM turned out to be 38.4%, the inhibition at 1.1 µM came to 69%, the inhibition at 3.3 µM came to 86.4% and the inhibition at 10 µM was found to be 96.7%. The inhibition at 30 µM in test [1] stood at 88.5%. Moreover, the Ki in test [2] came to 33.8 nM.

As to `O=c1oc2c(c(O)c1C(c1cccc(NS(=O)(=O)c3cccc(NS(=O)(=O)c4ccccc4)c3)c1)C1CC1)CCCCCC2` (stereo not shown) [Example 350, N-[3-[Cyclopropyl(5,6,7,8,9,10-hexahydro-4-hydroxy-2-oxo-2H-cycloocta[b]pyran-3-yl)methyl]phenyl]-3-[(phenylsulfonyl)amino]-benzenesulfonamide], in test [1], the inhibition at 0.123 µM was 22.2%, the inhibition at 0.37 µM stood at 64.3%, the inhibition at 1.1 µM came out at 82.2% and the inhibition at 3.3 µM came out at 98.3%. In addition, in test [1], the inhibition at 10 µM came out at 102% and the inhibition at 30 µM is 101%. Moreover, the inhibitory constant (Ki) in test [2] is 6.6 nM.

With `O=C(Nc1cccc(S(=O)(=O)Nc2cccc(C(c3c(O)c4c(oc3=O)CCCCCC4)C3CC3)c2)c1)c1ccccc1` (stereo not shown) [Example 351, N-[3-[[[3-[Cyclopropyl(5,6,7,8,9,10-hexahydro4-hydroxy-2-oxo-2H-cycloocta[b]pyran-3-yl)methyl]phenyl]amino]sulfonyl]phenyl]-benzamide], in test [1], the inhibition at 0.123 µM is 11.2%, the inhibition at 0.37 µM was 49.3%, the inhibition at 1.1 µM stood at 76.6% and the inhibition at 3.3 µM was found to be 93.9%. In addition, in test [1], the inhibition at 10 µM stood at 97.8% and the inhibition at 30 µM came out at 95.8%. In addition, the Ki in test [2] was found to be 16.4 nM.

As to `CN(C)c1ccc(S(=O)(=O)Nc2cccc(C(c3c(O)c4c(oc3=O)CCCCCC4)C3CC3)c2)cc1` (stereo not shown) [Example 352, N-[3-[Cyclopropyl(5,6,7,8,9,10-hexahydro-4-hydroxy-2-oxo-2H-cycloocta[b]pyran-3-yl)methyl]phenyl]-4-(dimethylamino)-benzenesulfonamide], in test [1], the inhibition at 0.123 µM is 49.7%, the inhibition at 0.37 µM was 78.5%, the inhibition at 1.1 µM is 97.9% and the inhibition at 3.3 µM came out at 104%. Besides, in test [1], the inhibition at 10 µM worked out at 102% and the inhibition at 30 µM was 94.6%. Further, the Ki in test [2] stood at 2.84 nM.

In the case of `Nc1cccc(S(=O)(=O)Nc2cccc(C(c3c(O)c4c(oc3=O)CCCCCC4)C3CC3)c2)c1` (stereo not shown) [Example 353 (First Title Compound), 3-Amino-N-[3-[cyclopropyl(5,6,7,8,9,10-hexahydro-4-hydroxy-2-oxo-2H-cycloocta[b]pyran-3-yl)methyl]phenyl]-benzenesulfonamide], in test [1], the inhibition at 0.123 µM stood at 48.6%, the inhibition at 0.37 µM is 83.1%, the inhibition at 1.1 µM was 92.7% and the inhibition at 3.3 µM came to 97.3%. In test [1], the inhibition at 10 µM was found to be 103% and the inhibition at 30 µM was found to be 92.9%. The inhibitory constant (Ki) in test [2] was 2.25 nM.

With `O=c1oc2c(c(O)c1C(c1cccc(NS(=O)(=O)c3cccc(NO)c3)c1)C1CC1)CCCCCC2` (stereo not shown) [Example 353 (Second Title Compound), N-[3-[Cyclopropyl(5,6,7,8,9, 10-hexahydro-4-hydroxy-2-oxo-2H-cycloocta[b]pyran-3-yl)methyl]phenyl]-3-(hydroxyamino)-benzenesulfonamide], in test [1], the inhibition at 0.123 µM turned out to be 61.4%, the inhibition at 0.37 µM was found to be 92.7%, the inhibition at 1.1 µM was determined as 103% and the inhibition at 3.3 µM was determined as 110%. In addition, in test [1], the inhibition at 10 µM was determined as 113% and the inhibition at 30 µM amounted to 107%. The Ki in test [2] is 2.4 nM.

As to `COC(=O)c1cccc(S(=O)(=O)Nc2cccc(C(c3c(O)c4c(oc3=O)CCCCCC4)C3CC3)c2)c1` (stereo not shown) [Example 354, 3-[[[3-[Cyclopropyl(5,6,7,8,9,10-hexahydro-4-hydroxy-2-oxo-2H-cycloocta[b]pyran-3-yl)methyl]phenyl]amino]sulfonyl]-benzoic acid, methyl ester], in test [1], the inhibition at 0.123 µM was 71.4%, the inhibition at 0.37 µM was found to be 86.4%, the inhibition at 1.1 µM was 96.1% and the inhibition at 3.3 µM amounted to 100%. In test [1], the inhibition at 10 µM is 103% and the inhibition at 30 µM stood at 108%. For the same compound, the Ki in test [2] is 1.45 nM.

For `O=c1oc2c(c(O)c1C(c1cccc(NS(=O)(=O)c3cccc(NCCO)c3)c1)C1CC1)CCCCCC2` (stereo not shown) [Example 355 (First Title Compound), N-[3-[Cyclopropyl(5,6,7,8,9,10-hexahydro4-hydroxy-2-oxo-2H-cycloocta[b]pyran-3-yl)methyl]phenyl]-3-[(2-ethanol)amino]-benzenesulfonamide], in test [1], the inhibition at 0.123 µM came to 117%, the inhibition at 0.37 µM was 117%, the inhibition at 1.1 µM was 115% and the inhibition at 3.3 µM was found to be 103%. Further, in test [1], the inhibition at 10 µM came out at 72.6% and the inhibition at 30 µM is 61.9%. In test [2], the inhibitory constant (Ki) is 2.14 nM.

The term Ki denotes a measure of affinity in units of concentration, obtained from inhibition or displacement.
